Measured values from paper PMC12830042, “Investigating the impact of charge and hydrophilicity on peptide-mucin interactions using a simple mucin model” (AAPS open, 2025).

Tested on: Mucin type II from porcine stomach
Assay: Peptide diffusion across a mono-component mucin layer (Transwell donor to acceptor chamber)
Assay type: in vitro ADME
Details: for time window in which acceptor concentration plateaued / leveled off: donor 266 and 133 μg/mL (both concentrations); for time window in which acceptor concentration plateaued / leveled off / time window in which acceptor concentration plateaued: mucin layer, pH 6.8, HPLC; for maximum concentration in the acceptor chamber: ~2.5% (w/v) Type II porcine mucin on Transwell, phosphate buffer pH 6.8, 37°C, over 6 h, HPLC-UV 214 nm
Method: Around 2.5% (w/v) of Type II porcine mucin was added to the donor side of the Transwell™ plate along with 300–1000 μL of 6.8 pH phosphate buffer. The mixture was shaken at 37°C for 45–60 min until the proper suspension was attained. Then, 1–2 mL of phosphate buffer at 6.8 pH was added to the acceptor side of the Transwell™ plate.
Fig. 1 A schematic diagram of the diffusion chamber to study peptide diffusion through a mucin layer. The well consists of donor and acceptor chambers separated by a mucin layer. The peptide was added to the donor chamber, and the diffusion of the peptide was monitored by its appearance in the acceptor chamber. The peptide in the acceptor chamber was sampled as a function of time, and the peptide concentration was determined by fluorescence spectroscopy, HPLC, or mass spectrometry
Initially, FITC-ADT10 and FITC-HAV10 peptides were used to test the mucin model in phosphate buffer at pH 6.8. Different concentrations of peptide in phosphate buffer at pH 6.8 were added to the donor chamber; the acceptor chamber contained a phosphate buffer at pH 6.8 in the Transwell™. At predetermined time points, 100 μL aliquots were taken from the acceptor chamber, transferred into 96-well plates, and replaced with pre-heated phosphate buffer pH 6.8. The aliquots were then analyzed by fluorescence spectroscopy plate reader at […].
The diffusion of each unlabeled peptide from the donor-to-acceptor chambers was analyzed by Agilent® 1200 HPLC equipped with a Zorbax C18 column with 3.5 μm particle size and dimensions of 4.6 × 50 mm. The column temperature was held at 30°C during the chromatographic run. Mobile phase A was 0.1% trifluoroacetic acid in Milli-Q water, and mobile phase B was 0.085% trifluoroacetic acid in acetonitrile. The detector was a UV–Vis detector monitoring at 214 nm wavelengths. Calibration curves were prepared in phosphate buffer pH 6.8 in concentrations ranging from 1 to 266 μg/mL.
Student t-tests were used to analyze the difference between the percentage diffused of FITC-HAV10 and FITC-ADT10, octreotide and octreotide A5, and lanreotide and lanreotide A5. The difference in diffusion percentages of ADT peptides was analyzed using ANOVA with Student − Newman − Keul post hoc comparison of the means and Dunnett’s Test comparing DTPPD, DTPPT, and DTPPVK with ADTC5. Statistical significance was set at p < 0.05 unless otherwise stated.

CC(C)[C@@H]1NC(=O)[C@H](CCCCN)NC(=O)[C@@H](Cc2c[nH]c3ccccc23)NC(=O)[C@H](Cc2ccc(O)cc2)NC(=O)[C@@H](NC(=O)[C@H](N)Cc2ccc3ccccc3c2)CSSC[C@@H](C(=O)N[C@H](C(N)=O)[C@@H](C)O)NC1=O [Lanreotide]
time window in which acceptor concentration plateaued / leveled off: 4 to 6 h

C[C@@H](O)[C@@H]1NC(=O)[C@H](CCCCN)NC(=O)[C@@H](Cc2c[nH]c3ccccc23)NC(=O)[C@H](Cc2ccccc2)NC(=O)[C@@H](NC(=O)[C@H](N)Cc2ccccc2)CSSC[C@@H](C(=O)N[C@H](CO)[C@@H](C)O)NC1=O [Octreotide]
time window in which acceptor concentration plateaued (donor 133 μg/mL): 4 to 6 h
maximum concentration in the acceptor chamber (donor 133 μg/mL): 0.00593 mg/mL
time window in which acceptor concentration plateaued (donor 266 μg/mL): 2 to 6 h
maximum concentration in the acceptor chamber (donor 266 μg/mL): 0.0116 mg/mL

Cyclo(1,7)Ac-CDTPPVC-NH2 (disulfide) [ADTC5, cyclic ADT cadherin peptide that modulates intercellular junctions]
time window in which acceptor concentration plateaued / leveled off: 2 to 6 h
